Experimental data reported in ChEMBL document CHEMBL1201862, “PubChem BioAssay data set” (2004).
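Results reflect a 48-hour exposure of cells in 96-well plates to compound at five concentrations. GI50 marks 50% less growth.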 Activity calls are given as the source filed them. No stated cut-off is given here; in the data, active = GI50 up to about 1.1 µM and inactive = higher.

Key:
Assay in all cases: NCI-60 cell line screen, 48 h
A549 = tested on: A549
CAKI-1 = tested on: CAKI-1
COLO 205 = tested on: COLO 205
HCT-116 = tested on: HCT-116
HCT-15 = tested on: HCT-15
HT-29 = tested on: HT-29
KM12 = tested on: KM12
LOX IMVI = tested on: LOX IMVI
M14 = tested on: M14
MDA-MB-231 = tested on: MDA-MB-231
MDA-N = tested on: MDA-N
OVCAR-4 = tested on: OVCAR-4
OVCAR-8 = tested on: OVCAR-8
SN12C = tested on: SN12C
SNB-19 = tested on: SNB-19
SR = tested on: SR
SW-620 = tested on: SW-620
U-251 = tested on: U-251
UACC-257 = tested on: UACC-257
UACC-62 = tested on: UACC-62

Row | Compound | GI50 (A549) | GI50 (CAKI-1) | GI50 (COLO 205) | GI50 (HCT-116) | GI50 (HCT-15) [µM] | GI50 (HT-29) | GI50 (KM12) | GI50 (LOX IMVI) | GI50 (M14) | GI50 (MDA-MB-231) | GI50 (MDA-N) | GI50 (OVCAR-4) | GI50 (OVCAR-8) | GI50 (SN12C) | GI50 (SNB-19) | GI50 (SR) | GI50 (SW-620) | GI50 (U-251) | GI50 (UACC-257) | GI50 (UACC-62)
1 | COC(=O)c1ccc(NCc2cc(O)ccc2O)cc1O | 12.2 µM (inactive) | 6.78 µM (inactive) | 16.7 µM (inactive) | 17.5 µM (inactive) | 11.9 | 17.2 µM (inactive) | 3.28 µM (inactive) | 13 µM (inactive) | 16.5 µM (inactive) | 11 µM (inactive) | 10.7 µM (inactive) | 13.2 µM (inactive) | 3.29 µM (inactive) | 8.38 µM (inactive) | 13.2 µM (inactive) | 5.48 µM (inactive) | 6.55 µM (inactive) | 11.9 µM (inactive) | 15.7 µM (inactive) | 13.1 µM (inactive)
2 | Cn1c(=S)c2nc(SCCN3C(=O)c4ccccc4C3=O)[nH]c2n(C)c1=O | > 100 µM (inactive) | > 100 µM (inactive) | > 100 µM (inactive) | > 100 µM (inactive) | > 100 | > 100 µM (inactive) | > 100 µM (inactive) | > 100 µM (inactive) | > 100 µM (inactive) | > 100 µM (inactive) | > 100 µM (inactive) | > 100 µM (inactive) | > 100 µM (inactive) | > 100 µM (inactive) | > 100 µM (inactive) | 3.75 µM (inactive) | > 100 µM (inactive) | > 100 µM (inactive) | > 100 µM (inactive) | > 100 µM (inactive)
3 | O=C(Cn1ccnc1[N+](=O)[O-])N(CCO)CCO | > 250 µM (inactive) | > 250 µM (inactive) | > 1250 µM (inactive) | > 250 µM (inactive) | > 250 | > 250 µM (inactive) | > 250 µM (inactive) | > 1250 µM (inactive) | > 250 µM (inactive) | > 250 µM (inactive) | > 250 µM (inactive) | > 250 µM (inactive) | > 250 µM (inactive) | > 250 µM (inactive) | > 250 µM (inactive) | > 79.1 µM (inactive) | > 250 µM (inactive) | > 250 µM (inactive) | > 250 µM (inactive) | > 250 µM (inactive)
4 | Cc1ccc(C(=O)OCC(C)C)cc1/N=N/N(C)C | > 79.4 µM (inactive) | 43.8 µM (inactive) | > 100 µM (inactive) | > 61.9 µM (inactive) | 48.1 | 16.1 µM (inactive) | 38.8 µM (inactive) | 31.1 µM (inactive) | 67 µM (inactive) | > 100 µM (inactive) | > 100 µM (inactive) | > 71.8 µM (inactive) | > 100 µM (inactive) | > 65 µM (inactive) | > 76.7 µM (inactive) | 70.5 µM (inactive) | > 100 µM (inactive) | 65.6 µM (inactive) | 26 µM (inactive) | > 100 µM (inactive)
5 | CN1C(=O)C(O)CC1c1ccccc1F (stereo not given) | > 100 µM (inactive) | > 100 µM (inactive) | > 100 µM (inactive) | > 100 µM (inactive) | > 100 | > 100 µM (inactive) | > 100 µM (inactive) | > 100 µM (inactive) | > 100 µM (inactive) | > 100 µM (inactive) | > 100 µM (inactive) | > 100 µM (inactive) | > 100 µM (inactive) | > 100 µM (inactive) | > 100 µM (inactive) | > 100 µM (inactive) | > 100 µM (inactive) | > 100 µM (inactive) | > 100 µM (inactive) | > 100 µM (inactive)
6 | N/C(=N\c1ccc(Cl)cc1)NS(=O)(=O)c1ccc(-c2ccccn2)s1 | 19.1 µM (inactive) | 2.07 µM (inactive) | 17.4 µM (inactive) | 16.9 µM (inactive) | 17.5 | 18.3 µM (inactive) | 29.7 µM (inactive) | 17.5 µM (inactive) | 17.8 µM (inactive) | 14.2 µM (inactive) | 6.89 µM (inactive) | 11.5 µM (inactive) | 19 µM (inactive) | 15.5 µM (inactive) | 16.3 µM (inactive) | 14.5 µM (inactive) | 19.4 µM (inactive) | 15 µM (inactive) | 7.91 µM (inactive) | 13.4 µM (inactive)
7 | c1ccc2c(c1)Nc1nc3nonc3nc1N2 | > 100 µM (inactive) | > 100 µM (inactive) | > 100 µM (inactive) | > 100 µM (inactive) | 29.4 | > 100 µM (inactive) | > 100 µM (inactive) | > 100 µM (inactive) | > 100 µM (inactive) | > 100 µM (inactive) | > 100 µM (inactive) | 62.5 µM (inactive) | > 100 µM (inactive) | > 100 µM (inactive) | > 100 µM (inactive) | > 100 µM (inactive) | > 100 µM (inactive) | > 100 µM (inactive) | > 100 µM (inactive) | > 100 µM (inactive)
8 | Cc1ccccc1OC(C)C(=O)NN1C(=O)CSC1c1ccc(Cl)cc1 (stereo not given) | 30.2 µM (inactive) | 56.6 µM (inactive) | > 56.1 µM (inactive) | 31.4 µM (inactive) | 46.6 | 18.4 µM (inactive) | 42.2 µM (inactive) | 24.4 µM (inactive) | 41.5 µM (inactive) | 26.2 µM (inactive) | 60.3 µM (inactive) | 36.4 µM (inactive) | 52 µM (inactive) | 17.5 µM (inactive) | 59.2 µM (inactive) | 5.47 µM (inactive) | 32.1 µM (inactive) | 30 µM (inactive) | 55 µM (inactive) | 58.9 µM (inactive)
9 | C/C(=N\Nc1nc2ccccc2[nH]1)c1ccncn1 | 0.151 µM (active) | 0.123 µM (active) | 0.128 µM (active) | 0.113 µM (active) | 0.161 | 0.0818 µM (active) | 0.27 µM (active) | 0.0942 µM (active) | 0.0951 µM (active) | 3.64 µM (inactive) | 0.698 µM (active) | 0.324 µM (active) | 0.124 µM (active) | 0.275 µM (active) | 0.246 µM (active) | 0.0811 µM (active) | 0.134 µM (active) | 0.147 µM (active) | 1.41 µM (inactive) | 0.0764 µM (active)
10 | Cc1ccc(NC(=O)CCc2nnc3s/c(=C\C=C\c4ccccc4)c(=O)n23)cc1 | > 100 µM (inactive) | > 100 µM (inactive) | > 100 µM (inactive) | > 100 µM (inactive) | > 100 | > 100 µM (inactive) | 61.8 µM (inactive) | 27 µM (inactive) | > 100 µM (inactive) | > 100 µM (inactive) | > 79.1 µM (inactive) | > 56.2 µM (inactive) | 31.3 µM (inactive) | > 100 µM (inactive) | > 79.6 µM (inactive) | 7.29 µM (inactive) | > 100 µM (inactive) | 53.3 µM (inactive) | > 95.7 µM (inactive) | 80.4 µM (inactive)
11 | COC(=O)c1cccc2c1Oc1ccccc1S2 | 75.2 µM (inactive) | 14.5 µM (inactive) | 19.6 µM (inactive) | 47.1 µM (inactive) | 46.1 | 25.9 µM (inactive) | 12 µM (inactive) | > 100 µM (inactive) | > 100 µM (inactive) | 38.7 µM (inactive) | > 100 µM (inactive) | 66.4 µM (inactive) | 74.3 µM (inactive) | 56.6 µM (inactive) | 41.2 µM (inactive) | > 100 µM (inactive) | 59.6 µM (inactive) | 59.6 µM (inactive) | > 100 µM (inactive) | > 100 µM (inactive)
12 | CCOP(=O)(C/C=C/Cn1nc(Br)c(=O)[nH]c1=O)OCC | > 100 µM (inactive) | > 100 µM (inactive) | > 100 µM (inactive) | > 100 µM (inactive) | > 100 | > 100 µM (inactive) | > 100 µM (inactive) | > 100 µM (inactive) | > 100 µM (inactive) | > 100 µM (inactive) | > 100 µM (inactive) | > 100 µM (inactive) | > 100 µM (inactive) | > 100 µM (inactive) | > 100 µM (inactive) | > 100 µM (inactive) | > 100 µM (inactive) | > 100 µM (inactive) | > 100 µM (inactive) | > 100 µM (inactive)
13 | COc1cc(C2c3cc4c(cc3[C@@H](Nc3ccc(F)cc3)C3COC(=O)[C@H]23)OCO4)cc(OC)c1O (stereo not given in full) | 0.224 µM (active) | 0.514 µM (active) | 2.03 µM (inactive) | 2.77 µM (inactive) | 3.56 | 3.41 µM (inactive) | 3.77 µM (inactive) | 0.753 µM (active) | 2.56 µM (inactive) | 4.33 µM (inactive) | 8.93 µM (inactive) | 15.1 µM (inactive) | 2.53 µM (inactive) | 1.57 µM (inactive) | 1.38 µM (inactive) | 0.106 µM (active) | 1.69 µM (inactive) | 1.09 µM (active) | 6.05 µM (inactive) | 0.841 µM (active)
14 | N#Cc1cc(N(CCCl)CCCl)c([N+](=O)[O-])cc1[N+](=O)[O-] | 83.8 µM (inactive) | 11.1 µM (inactive) | > 100 µM (inactive) | > 100 µM (inactive) | > 100 | > 100 µM (inactive) | > 100 µM (inactive) | 98.2 µM (inactive) | > 100 µM (inactive) | > 100 µM (inactive) | > 100 µM (inactive) | > 100 µM (inactive) | > 100 µM (inactive) | 48 µM (inactive) | > 100 µM (inactive) | 2.89 µM (inactive) | > 100 µM (inactive) | > 100 µM (inactive) | > 100 µM (inactive) | > 100 µM (inactive)
